Data set [1] concerns the target T1, polycystin-2 (PC2, TRPP2), PC2_F604P (Homo sapiens, UniProt Q13563, F604P).
T1 sequence (Q13563 185-719 F604P): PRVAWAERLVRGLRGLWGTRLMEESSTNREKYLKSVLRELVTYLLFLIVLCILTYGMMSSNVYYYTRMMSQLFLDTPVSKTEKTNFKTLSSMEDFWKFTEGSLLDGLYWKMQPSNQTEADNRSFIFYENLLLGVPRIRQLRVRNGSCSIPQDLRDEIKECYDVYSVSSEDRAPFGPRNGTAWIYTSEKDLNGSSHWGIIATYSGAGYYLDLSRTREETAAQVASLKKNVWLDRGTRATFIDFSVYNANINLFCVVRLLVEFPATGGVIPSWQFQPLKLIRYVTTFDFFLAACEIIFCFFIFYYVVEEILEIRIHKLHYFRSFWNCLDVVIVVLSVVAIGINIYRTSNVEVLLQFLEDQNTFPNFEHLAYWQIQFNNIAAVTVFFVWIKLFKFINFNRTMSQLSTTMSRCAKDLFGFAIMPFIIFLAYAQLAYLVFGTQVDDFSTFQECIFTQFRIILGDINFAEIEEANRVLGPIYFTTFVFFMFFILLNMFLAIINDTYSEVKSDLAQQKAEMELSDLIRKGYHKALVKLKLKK
The data set can be described thus: cryo-EM structure. Type of data set: cell-based.

The data set “cryo-EM structure” concerns the molecule itself. Nature of the data set: cryo-EM structure.

Consider `CC1CC(C)(C)N(C(=O)CN2C(=O)c3ccccc3C2=O)c2ccccc21` (centres unmarked) [ML-SA1], for which the EC50 in data set [1] was found to be 5.2 µM.

B1: truncated PC2_F604P protein containing the fragment Pro185-Lys719 (domain or fragment, human, UniProt Q13563 185-719, looked up)
chain: PRVAWAERLVRGLRGLWGTRLMEESSTNREKYLKSVLRELVTYLLFLIVLCILTYGMMSSNVYYYTRMMSQLFLDTPVSKTEKTNFKTLSSMEDFWKFTEGSLLDGLYWKMQPSNQTEADNRSFIFYENLLLGVPRIRQLRVRNGSCSIPQDLRDEIKECYDVYSVSSEDRAPFGPRNGTAWIYTSEKDLNGSSHWGIIATYSGAGYYLDLSRTREETAAQVASLKKNVWLDRGTRATFIDFSVYNANINLFCVVRLLVEFPATGGVIPSWQFQPLKLIRYVTTFDFFLAACEIIFCFFIFYYVVEEILEIRIHKLHYFRSFWNCLDVVIVVLSVVAIGINIYRTSNVEVLLQFLEDQNTFPNFEHLAYWQIQFNNIAAVTVFFVWIKLFKFINFNRTMSQLSTTMSRCAKDLFGFAIMPFIIFLAYAQLAYLVFGTQVDDFSTFQECIFTQFRIILGDINFAEIEEANRVLGPIYFTTFVFFMFFILLNMFLAIINDTYSEVKSDLAQQKAEMELSDLIRKGYHKALVKLKLKK
In the case of B1, the binding result in “cryo-EM structure” is reported as “binds”.

As usually defined, the EC50 is the midpoint of the concentration-response curve. A low value points to higher potency in that assay.

Source of the values: paper PMC10962963 (Proceedings of the National Academy of Sciences of the …, 2024).
